# Measured values from article PMC12378234, “Enzyme-mediated aminoglycoside resistance without target mimicry” (Communications Chemistry, 2025).
# “And” between values parts separate entries of the source, which are not always exact repeats. Equal entries are not always repeated. Where two headings read alike, the source gives them in different places.
# Columns and labels:
# [1] = target: T1, AAC(3)-IIIa (Pseudomonas aeruginosa, UniProt P29808); test: Isothermal titration calorimetry; type: binding, P. aeruginosa
# T1 construct: 6xHis-tag (thrombin-cleavable, pET15b) (N); made in house; host or cells: LOBSTR E. coli
# T1 sequence (P29808 whole entry): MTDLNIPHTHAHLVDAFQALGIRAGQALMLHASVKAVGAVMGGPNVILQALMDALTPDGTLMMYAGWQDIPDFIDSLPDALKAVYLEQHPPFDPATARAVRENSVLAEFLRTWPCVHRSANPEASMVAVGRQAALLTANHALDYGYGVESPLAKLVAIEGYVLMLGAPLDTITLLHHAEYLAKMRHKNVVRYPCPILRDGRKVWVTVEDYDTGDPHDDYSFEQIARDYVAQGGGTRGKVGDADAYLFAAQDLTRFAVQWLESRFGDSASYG
# Experimental: (§1) To accurately measure protein ligand interactions, the concentration of our proteins of interest was measured spectrophotometrically using the NanoDrop OneC Spectrometer (Thermo Scientific). ITC experiments were performed on a MicroCal iTC 200 (General Electric) at 25 °C with stirring at 750 rpm. Unique buffer solutions were used for each enzyme. AAC(3)-Ia was prepared in 50 mM HEPES, pH 7, and 150 mM NaCl. AAC(3)-IIIa was prepared in 120 mM Tris, pH 7.5, and 150 mM NaCl. AAC(3)-XIa was prepared in 20 mM Tris, pH 7.5, and 150 mM NaCl. The cell contained 550 μM AAC(3)-Ia, 350 μM AAC(3)-IIIa, or 450 μM AAC(3)-XIa. All experiments also contained 5000 μM of coenzyme A trilithium salt in the cell. […] In all ITC experiments, aminoglycosides were prepared in the same buffering solution as the target protein. The ligands were injected 29 times ([…] per injection) with a 180 s interval between injections. Results were analyzed using ORIGIN software version 7E (MicroCal) using the molecular weight of a single protomer of each protein and fitted with a two-set of sites binding model (Supplementary Fig. 5). Data analysis was performed in Microsoft Excel and GraphPad5 software. One-way ANOVA and Tukey’s multiple comparison tests were used to determine the statistical significance of binding affinities.
# [2] = target: AAC(3)-XIa (Corynebacterium striatum, UniProt A0ABX7DED9); test: Isothermal titration calorimetry; type: binding; settings: 25 °C, with coenzyme A, n = 3
# Experimental: as §1
# [3] = first set of sites, 25 °C, with coenzyme A, n = 3
# [4] = second set of sites, 25 °C, with coenzyme A, n = 3
# [5] = AAC(3)-XIa, second set of sites
smiles,measurement,setting,value
"CN[C@@H]1[C@@H](O)[C@@H](O[C@@H]2[C@@H](O)[C@H](O[C@H]3OC(CN)=CC[C@H]3N)[C@@H](N)C[C@H]2N)OC[C@]1(C)O [Sisomicin, sisomicin]",TΔS,[1]; [3],-0.411 ± 0.318 kcal/mol
same,ΔG,[1]; [3],-8.05 ± 0.474 kcal/mol
same,ΔH,[1]; [3],-8.46 ± 0.351 kcal/mol
same,N (sites),"[1]; first set of sites, two-set of sites model, 25 °C, with coenzyme A, n = 3",0.35 ± 0.03 sites
same,Kd,"[1]; first set of sites, two-set of sites model, 25 °C, with coenzyme A, n = 3, read-out: Kd",1.3 ± 0.1 µM
same,Kd,"[1]; individual replicates, raw data behind Fig. 6, read-out: Kd",1.42 µM and 1.17 µM and 1.23 µM
same,N2 (sites),[1]; [4],0.56 ± 0.04 sites
same,TΔS 2,[1]; [4],2 ± 0.146 kcal/mol
same,ΔG 2,[1]; [4],-7.74 ± 0.204 kcal/mol
same,ΔH 2,[1]; [4],-5.74 ± 0.143 kcal/mol
same,Kd,"[1]; second set of sites, 25 °C, with coenzyme A, n = 3, read-out: Kd2",2.1 ± 0.2 µM
same,TΔS,"[2]; AAC(3)-XIa, first set of sites",-4.51 ± 0.378 kcal/mol
same,ΔG,"[2]; AAC(3)-XIa, first set of sites",-8.12 ± 0.53 kcal/mol
same,ΔH,"[2]; AAC(3)-XIa, first set of sites","−12,600 ± 372 cal/mol"
same,N (sites),"[2]; AAC(3)-XIa, first set of sites, two-set of sites model",0.51 ± 0.01 sites
same,N2 (sites),[2]; [5],0.36 ± 0.04 sites
same,TΔS 2,[2]; [5],7.295 ± 1.615 kcal/mol
same,ΔG 2,[2]; [5],-6.237 ± 2.237 kcal/mol
same,ΔH 2,[2]; [5],1.058 ± 1.548 kcal/mol
same,Kd,"[2]; Kd2, AAC(3)-XIa, second set of sites",27.1 ± 4.2 µM
same,Kd,"[2]; Kd, AAC(3)-XIa, first set of sites, two-set of sites model",1.1 ± 0.02 µM
